The source of these data is US20050282818A1, “Ubiquitin ligase inhibitors” (Rigel Pharmaceuticals, Inc., priority 2004, published 2005).

Bounds are passed on as bounds.

Holding throughout (type): cell-based
Assay [1] has as its system HELA cells. Briefly: Cell proliferation PAD assay, HeLa. The settings on record: Homo sapiens, 6pt, 48 hours. The source says:
(§1) Table 3 illustrates the inhibitory activity of the compounds of the invention determined by the PAD assay described above in a number of cell types. Apoptosis was not
Cell lines used are available from American Type Culture Collection (ATCC), for example, cell cultures containing A549 (ATCC# CCL-185), HeLa (ATCC# CCL-2), HCT116 ATTC# CCL-247), and H1299 (ATCC# CRL-5803) cells were maintained in T175 flasks following the ATCC recommended media and handling procedures. […] A 20,000 cells/ml solution was made for plating. Cells were plated in black Packard 96 well plates by placing 100 μl per well (2,000 cells per well). […] The definitions of the cell types used are as follows: A549 is lung carcinoma; HI 299 is non-small cell lung carcinoma; HI 155 is non-small cell lung carcinoma; AsPC-1 is pancreatic adenocarcinoma; Caov-3 is ovarian adenocarcinoma; COLO 205 is colorectal adenocarcinoma; DLD-1 colorectal adenocarcinoma; HCT116 is colorectal carcinoma; DU 145 is prostate carcinoma; ES-2 is ovarian clear cell carcinoma; H460 is large cell lung carcinoma; HELA is cervical adenocarcinoma; MIA PaCa-2 is pancreatice carcinoma; OVCAR-3 is ovarian adenocarcinoma; OVCAR8 is ovarian carcinoma; PC3 is prostate adenocarcinoma; SK-OV-3 is ovarian adenocarcinoma; SU86.86 is pancreatic carcinoma; TOV-21G is avarian clear cell carcinoma; U2OS is bone osteosarcoma; is ASPC-I is pancreatic adenocarcinoma; BXPC-3 is pabcreatic adenocarcinoma; HL60 is promyeloblast promyelocytic leukemia; K562 is bone marrow chronic myelogenous leukemia; L1210 is mouse lymphocytic leukemia; MOLT3 is T lymphoblast acute lymphoblastic leukemia; MOLT4 is T lymphoblast acute lymphoblastic leukemia; SW620 is colorectal adenocarcinoma; THP-1 is monocyte acute monocytic leukemia; U937 is histiocytic lymphoma; and UACC-257 is melanoma.
Compounds and additional media were added 24 hours after cell plating. A compound master plate was created with concentrations 500 times greater than the final concentration added to the cells. All compound testing was done in duplicate using 6.3 fold dilutions starting with 10 mM. All outside wells (and 4 internal wells) were DMSO controls. Taxol and at least one additional control were run on all plates. Three microliters of the compound master plate were added to deep well blocks containing 750 μl of RPMI media. One hundred microliters were transferred from the compound/media deep well blocks to the plated cells resulting in a 500 fold dilution of the compounds. Cells were grown at 37° C., 5% CO2 for 48 hours.
Cells to be analyzed by photography were fixed and stained. One hundred microliters of media were removed and 100 μl of 9.3% formamide was added to each well. Plates were left on the benchtop for 45 minutes. A staining solution containing 1.55 μl of 1 mg/ml DAPI added to 18.75 ml PBS was warmed for 15 minutes at 37° C. The cells were aspirated prior to washing with 100 μl of PBS. Seventy microliters of PBS were aspirated and 170 μl of the DAPI solution were added to each well of fixed cells. Plates were left at room temperature for one hour then aspirated and washed twice with 100 μl of PBS. The stained cells were left at 4° C. for a minimum of 16 hours before photographic analysis with Array Scan II (Cellomics). Analysis of the photographic images to determine numbers of live cells (proliferation), apoptotic cells and dead cells, were according to the methods described in U.S. Utility patent application Ser. No. 10/652,440, which incorporated herein in its entirety.

In assay [2] the test system is MIA PaCa-2 cells. In words: Cell proliferation PAD assay, MIA PaCa-2. The settings on record: Homo sapiens, Miapaca2 cells, 9pt, 48 hours.
Source text: as §1
(§2) Cell lines used are available from American Type Culture Collection (ATCC), for example, cell cultures containing A549 (ATCC# CCL-185), HeLa (ATCC# CCL-2), HCT116 ATTC# CCL-247), and H1299 (ATCC# CRL-5803) cells were maintained in T175 flasks following the ATCC recommended media and handling procedures. […] A 20,000 cells/ml solution was made for plating. Cells were plated in black Packard 96 well plates by placing 100 μl per well (2,000 cells per well). […]
(§3) Cells to be analyzed by photography were fixed and stained. […]

Assay [3] relates to COLO 205 cells. In words: Cell proliferation PAD assay, COLO 205. The settings on record: Homo sapiens, Colo205 cells, 9pt, 48 hours.
Source text: as §1, §2, §3

In general, IC50 refers to the concentration that gives 50% inhibition. High values mean weaker potency in that assay, low ones greater potency in that assay. On to `O=[N+]([O-])c1ccc(SCCO)c2nonc12` [compound 150, 2-[(7-nitro-2,1,3-benzoxadiazol-4-yl)thio]ethanol], for which the IC50 in assay [1] is less than 1000 nM.

On to `COC(=O)c1ccc(NS(=O)(=O)c2c(Cl)ccc3nonc23)cc1` [compound 178, methyl 4-{[(5-chloro-2,1,3-benzoxadiazol-4-yl)sulfonyl]amino}benzoate], for which the IC50 in assay [1] was less than 1000 nM.

The compound `O=S(=O)(c1c(Cl)ccc2nonc12)N1CCN(c2ncc(C(F)(F)F)cc2Cl)CC1` [compound 179, 5-chloro-4-({4-[3-chloro-5-(trifluoromethyl)pyridin-2-yl]piperazin-1-yl}sulfonyl)-2,1,3-benzoxadiazole] had an IC50 in assay [1] of 1000 to 20000 nM.

Regarding `Cc1cccc(N2CCN(S(=O)(=O)c3c(Cl)ccc4nonc34)CC2)n1` [compound 202, 5-chloro-4-{[4-(6-methylpyridin-2-yl)piperazin-1-yl]sulfonyl}-2,1,3-benzoxadiazole], in assay [1], the IC50 lay within 1000 to 20000 nM.

Take `O=S(=O)(Nc1ccc2cn[nH]c2c1)c1ccc(Cl)c2nonc12` [compound 220, 7-chloro-N-1 H-indazol-6-yl-2,1,3-benzoxadiazole-4-sulfonamide]: the IC50 in assay [1] lay within 1000 to 20000 nM.

Turning to `CC1(C)CCN(S(=O)(=O)c2c(Cl)ccc3nonc23)CC1` [compound 245, 5-chloro-4-[(4,4-dimethylpiperidin-1-yl)sulfonyl]-2,1,3-benzoxadiazole], the IC50 is not below 20000 nM in assay [1], less than 1000 nM in assay [2] and less than 1000 nM in assay [3].

`Cc1cc(C)cc(-c2ccc([N+](=O)[O-])c3nonc23)c1` [compound 286, 4-(3,5-Dimethylphenyl)-7-nitro-2,1,3-benzoxadiazole] showed an IC50 in assay [1] of 1000 to 20000 nM.
